Results reported in ChEMBL document CHEMBL2163222 (J Med Chem, 2012).

Tests used:
[1] = cells; settings: Homo sapiens, U373 MG, 72 h
[2] = Growth inhibition of human OE21 cells after 3 days by MTT assay; type: functional, cell-based; settings: OE21, 72 h
[3] = tested on: OE33; assay: Growth inhibition of human OE33 cells after 3 days by MTT assay; type: functional, cell-based; settings: OE33, 72 h
[4] = tested on: T98G; assay: cells; settings: Homo sapiens, 72 h
[5] = tested on: Hs 683; assay: cells; settings: Homo sapiens, Hs 683, 72 h

Row | SMILES | IC50 [1] | IC50 [4] | IC50 [5] | IC50 [2] | IC50 [3]
1 | Cc1nccc2c1[nH]c1cc(OCC(C)C)ccc12 | 24 µM | 22 µM | 23 µM | 12 µM | 25 µM
2 | Cc1nccc2c3ccc(O)cc3n(Cc3ccccc3)c12 | 80 µM | 81 µM | 79 µM | 35 µM | 35 µM
3 | Cc1c2c(cc[n+]1CCc1ccccc1)c1ccc(OCCC(C)C)cc1n2CCC(C)C | 3.4 µM | 3.5 µM | 3.1 µM | 3.7 µM | –
4 | Cc1nccc2c1[nH]c1cc(OCc3cccc4ccccc34)ccc12 | 7.4 µM | 12 µM | 19 µM | 33 µM | 8.2 µM
5 | Cc1nccc2c3ccc(OCc4ccc(F)cc4)cc3n(Cc3ccc(F)cc3)c12 | 30 µM | 14 µM | 17 µM | 15 µM | 25 µM
6 | C=CCOc1ccc2c(c1)[nH]c1c(C)nccc12 | 32 µM | 32 µM | 28 µM | 27 µM | 30 µM
7 | CCCn1c2cc(OCc3ccccc3)ccc2c2ccnc(C)c21 | 26 µM | 34 µM | 13 µM | 23 µM | 9 µM
8 | Cc1nccc2c1[nH]c1cc(OCCO)ccc12 | 42 µM | 53 µM | 41 µM | 30 µM | 63 µM
9 | Cc1nccc2c1[nH]c1cc(OCCCC(F)(F)F)ccc12 | > 100 µM | 86 µM | > 100 µM | > 100 µM | > 100 µM
10 | COc1ccc2c(c1)[nH]c1c(C)nccc12 [HARMINE] | 32 µM | 24 µM | – | 32 µM | 18 µM
11 | Cc1c2c(cc[n+]1CCO)c1ccc(OCc3ccccc3)cc1n2Cc1ccccc1 | 9 µM | 61 µM | 31 µM | 25 µM | –
12 | Cc1nccc2c1[nH]c1cc(OCC3CCCCC3)ccc12 | 7.5 µM | 7.2 µM | 22 µM | 8.3 µM | 8.1 µM
13 | Cc1nccc2c3ccc(OCCC(C)C)cc3n(CCC(C)C)c12 | 33 µM | 35 µM | 30 µM | 30 µM | –
14 | Cc1nccc2c1[nH]c1cc(OCc3ccccn3)ccc12 | 21 µM | 20 µM | 20 µM | 16 µM | 23 µM
15 | Cc1nccc2c1[nH]c1cc(OC(=O)c3ccccc3)ccc12 | 27 µM | 42 µM | 53 µM | 30 µM | 31 µM
16 | Cc1nccc2c1[nH]c1cc(OCc3ccccc3)ccc12 | 9.3 µM | 17 µM | 17 µM | 21 µM | 4.1 µM
17 | Cc1c2[nH]c3cc(OCc4ccccc4)ccc3c2cc[n+]1Cc1ccccc1 | 3.9 µM | 5.6 µM | 3.6 µM | 6 µM | 5.5 µM
18 | Cc1nccc2c1[nH]c1cc(OCCc3ccccc3)ccc12 | 9.1 µM | 21 µM | 21 µM | 14 µM | 7.9 µM

The next compounds have a lower IC50 [1] than those just listed; values first:

Row | IC50 [1] | IC50 [4] | IC50 [5] | SMILES | IC50 [2] | IC50 [3]
19 | 2.9 µM | 14 µM | 13 µM | Cc1c2c(cc[n+]1Cc1ccc(F)cc1)c1ccc(OCc3ccc(F)cc3)cc1n2Cc1ccc(F)cc1 | 3.7 µM | 3.1 µM
20 | 2.5 µM | 11 µM | 0.6 µM | CCC[n+]1ccc2c3ccc(OCc4ccccc4)cc3n(Cc3ccccc3)c2c1C | 3.4 µM | –
21 | 2.5 µM | 3.6 µM | 8.1 µM | Cc1nccc2c1[nH]c1cc(OCc3ccncc3)ccc12 | 5 µM | 6.3 µM
22 | 2.5 µM | 2.9 µM | 4 µM | Cc1c2c(cc[n+]1CCO)c1ccc(OCCC(C)C)cc1n2CCC(C)C | 7.6 µM | –
23 | 2 µM | 2.4 µM | 2.3 µM | Cc1c2c(cc[n+]1CCc1ccccc1)c1ccc(OCc3ccccc3)cc1n2Cc1ccccc1 | 2.4 µM | –
24 | 1.7 µM | 2.6 µM | 3.8 µM | Cc1c2c(cc[n+]1CCO)c1ccc(OCC3CCCCC3)cc1n2CC1CCCCC1 | – | –
25 | 1.4 µM | 0.07 µM | 0.25 µM | Cc1c2c(cc[n+]1Cc1ccccc1F)c1ccc(OCC3CCCCC3)cc1n2CC1CCCCC1 | 0.35 µM | 0.35 µM
26 | 0.88 µM | 5.7 µM | 3.1 µM | CCCn1c2cc(OCc3ccccc3)ccc2c2cc[n+](Cc3ccc(F)cc3)c(C)c21 | 1.9 µM | 1 µM
27 | 0.8 µM | 0.97 µM | 2.8 µM | Cc1c2c(cc[n+]1Cc1ccccc1)c1ccc(OCc3cccc(F)c3)cc1n2Cc1cccc(F)c1 | 0.4 µM | 2.9 µM
28 | 0.7 µM | 3.1 µM | 0.6 µM | CCCCCC[n+]1ccc2c3ccc(OCc4ccccc4)cc3n(Cc3ccccc3)c2c1C | 1.9 µM | –
29 | 0.6 µM | 0.7 µM | 2.2 µM | Cc1c2c(cc[n+]1Cc1ccccc1F)c1ccc(OCc3cccc(F)c3)cc1n2Cc1cccc(F)c1 | 1.4 µM | 3 µM
30 | 0.6 µM | 0.6 µM | 1.6 µM | Cc1c2c(cc[n+]1Cc1ccc(F)cc1)c1ccc(OCc3ccccc3)cc1n2Cc1ccccc1 | 0.61 µM | 2.4 µM
31 | 0.5 µM | 0.37 µM | 0.44 µM | Cc1c2c(cc[n+]1Cc1ccccc1F)c1ccc(OCc3ccccc3)cc1n2Cc1ccccc1 | 0.38 µM | 0.7 µM
32 | 0.5 µM | 0.43 µM | 1.2 µM | Cc1c2c(cc[n+]1Cc1ccccc1F)c1ccc(OCc3ccc(F)cc3)cc1n2Cc1ccc(F)cc1 | 1.6 µM | 1.6 µM
33 | 0.43 µM | 0.4 µM | 0.9 µM | Cc1c2c(cc[n+]1Cc1ccccc1)c1ccc(OCc3ccc(F)cc3)cc1n2Cc1ccc(F)cc1 | 0.5 µM | 1.4 µM
34 | 0.41 µM | 1.7 µM | 2.6 µM | CCCn1c2cc(OCc3ccccc3)ccc2c2cc[n+](Cc3ccccc3)c(C)c21 | 0.57 µM | 0.3 µM
35 | 0.4 µM | 0.43 µM | 0.42 µM | Cc1c2c(cc[n+]1CCC(C)C)c1ccc(OCC3CCCCC3)cc1n2CC1CCCCC1 | – | –
36 | 0.4 µM | 27 µM | 18 µM | Cc1nccc2c3ccc(OCc4cccc(F)c4)cc3n(Cc3cccc(F)c3)c12 | 7.9 µM | 16 µM
37 | 0.39 µM | 1.2 µM | 0.37 µM | Cc1c2c(cc[n+]1CCC(C)C)c1ccc(OCc3ccccc3)cc1n2Cc1ccccc1 | 0.5 µM | –
38 | 0.39 µM | 1.8 µM | 0.45 µM | CCCn1c2cc(OCc3ccccc3)ccc2c2cc[n+](Cc3ccccc3F)c(C)c21 | 0.42 µM | 0.25 µM
39 | 0.38 µM | 0.6 µM | 0.47 µM | Cc1c2c(cc[n+]1Cc1ccccc1)c1ccc(OCCC(C)C)cc1n2CCC(C)C | – | –
40 | 0.22 µM | 0.41 µM | 0.26 µM | Cc1c2c(cc[n+]1CCC(C)C)c1ccc(OCCC(C)C)cc1n2CCC(C)C | 0.48 µM | –
41 | 0.2 µM | 0.26 µM | 0.31 µM | Cc1c2c(cc[n+]1CCc1ccccc1)c1ccc(OCC3CCCCC3)cc1n2CC1CCCCC1 | – | –
42 | 0.04 µM | 2 µM | 3.1 µM | Cc1c2c(cc[n+]1Cc1ccc(F)cc1)c1ccc(OCC3CCCCC3)cc1n2CC1CCCCC1 | 1.4 µM | 1 µM
